Assay results: US5298488A, “CM-chitin derivatives and use thereof” (Fuji Photo Film Co., Ltd., priority 1990, dated 1994)
No end group written: not given here. sulfated CM‑chitin = sulfated carboxymethyl-chitin (CM-chitin), conjugated to the peptide; trimellityl CM‑chitin = trimellityl derivative of CM-chitin; succinylated CM‑Chitin = succinylated CM-chitin; CM‑Chitin = carboxymethyl chitin

Tests used:
vitronectin = experiment: Cell adhesion-inhibitory test against vitronectin (competitive assay, number of adhered cells); format: cell-based, human; details: endothelium cells of blood vessel, 37° C., one hour, 0 control 249
From the text: (§1) A method for determining the activity of the CM-chitin derivatives of the present invention for inhibiting adhesion of cells to fibronectin or vitronectin will be described below. The competitive assays used herein have widely been employed tin the field of biochemistry and are detailed in, for instance, "Method in Enzymology", 1981, 82, pp. 803-831; and J. P. KOKAI Nos. Hei 1-309682 and Hei 2-174797.
(§2) Commercially available fibroneotin (derived from human; purchased from Seikaqaku Kogyo K. K.) and vitronectin (derived from human; purchased from Funakoshi Co., Ltd.) each was diluted to 1.0 μ1/ml and 2.0 μ1/ml with PBS (NaH2 PO4 0.005 M+NaCl 0.07 M), 0.5 ml of the resulting diluted solution was dispensed into a plastic plate having 24 wells and incubated at 37° C. overnight to perform coating of the plate. Then bovine serum albumin (BSA 1%) was added followed by incubation at 37° C. for one hour for inhibiting the occurrence of nonspecific adsorption, then washing with PBS in the usual manner and sufficient drainage to give an adsorption plate.
[…] Each of the solutions (0.25 ml) was dispensed to the plate prepared above, 0.25 ml of a suspension of endothelium cells of blood vessel (4×10^6 cells/ml) was added to the plate and incubated at 37° C. for one hour to thus cause cohesion of the cells. The plate was washed three times with DMEM medium to remove non-adhesive cells, then the adhered cells were peeled off with a 0.025% EDTA trypsin solution and stained with a 2% Trypan Blue solution to determine the number of the adhered cells.

[1] = tested on: human plasma rich in platelet; experiment: Platelet coagulation-inhibitory activity in vitro, transmittance by aggregometer; format: cell-based; details: 37° C., 3 minutes preincubation; for Platelet Coagulation-Inhibitory Action IC50, ADP Stimulation: ADP stimulation (50 μM ADP solution); for Platelet Coagulation-Inhibitory Action IC50, Collagen Stimulation: collagen stimulation (200 μg/ml collagen solution)
Method: The platelet coagulation-inhibitory effect of the CM-chitin derivative of the present invention was assayed, in vitro, using human plasma rich in platelet. The experimental method will be described below.
To fresh human blood, there was added 1/9 volume of a 3.8% sodium citrate solution, the resulting mixture was centrifuged (1000 rpm; for 10 minutes) and the upper layer was separated as a plasma rich in platelet. A lyophilized CM-chitin derivative was dissolved in physiological saline to give a plurality of solutions having various concentrations ranging from 0 to 1.5 mg/ml. Each of the solutions (25 μ1) was added to 200 µl of the plasma, incubated at 37° C. for 3 minutes, then a 50 μM of ADP (adenosine diphosphate) solution or a 200 μg/ml collagen solution was added to determine the extent of coagulation in terms of transmittance determined by an aggregometer.
Rate of Coagulation Inhibition=(1-T/T .)×100%
T . : transmittance observed when a salt of CM-chitin derivative was not added.
T : transmittance observed when a salt of CM-chitin derivative was added.

fibronectin = experiment: Cell adhesion-inhibitory test against fibronectin (competitive assay, number of adhered cells); format: cell-based, human; details: endothelium cells of blood vessel, 37° C., one hour, 0 mg/ml control 160
From the text: as §1, §2
A CM-chitin derivative obtained through lyophilization was diluted with Dulbecco's Modified Eagles Medium (hereunder referred to as "DMEM") to give solutions of the CM-chitin derivative having concentrations of 0, 0.25, 0.5, 1.0 and 1.5 mg/ml respectively. Each of the solutions (0.25 ml) was dispensed to the plate prepared above, 0.25 ml of a suspension of endothelium cells of blood vessel (4×10^6 cells/ml) was added to the plate and incubated at 37° C. for one hour to thus cause cohesion of the cells. The plate was washed three times with DMEM medium to remove non-adhesive cells, then the adhered cells were peeled off with a 0.025% EDTA trypsin solution and stained with a 2% Trypan Blue solution to determine the number of the adhered cells.

[2] = concentration 10 mg/ml (so in the source)
[3] = concentration 50 mg/ml (so in the source)
[4] = concentration 100 mg/ml (so in the source)
[5] = concentration 300 mg/ml (so in the source)

Row | Compound | Cell Adhesion-Inhibitory effect Against Vitronectin (number of adhered cells) (vitronectin; [2]) [cell/well] | Cell Adhesion-Inhibitory effect Against Vitronectin (number of adhered cells) (vitronectin; [3]) [cell/well] | Cell Adhesion-Inhibitory effect Against Vitronectin (number of adhered cells) (vitronectin; [4]) [cell/well] | Cell Adhesion-Inhibitory effect Against Vitronectin (number of adhered cells) (vitronectin; [5]) [cell/well] | Platelet Coagulation-Inhibitory Action IC50, ADP Stimulation [1] [mg/L] | Platelet Coagulation-Inhibitory Action IC50, Collagen Stimulation [1] [mg/L] | Cell Adhesion-Inhibitory effect Against Fibronectin (number of adhered cells) (fibronectin; concentration 0.5 mg/ml) [cell/well] | Cell Adhesion-Inhibitory effect Against Fibronectin (number of adhered cells) (fibronectin; concentration 1.0 mg/ml) [cell/well] | Cell Adhesion-Inhibitory effect Against Fibronectin (number of adhered cells) (fibronectin; concentration 1.5 mg/ml) [cell/well] | Cell Adhesion-Inhibitory effect Against Fibronectin (number of adhered cells) (fibronectin; concentration .25 mg/ml) [cell/well]
1 | Succinylated CM-Chitin-(Arg-Gly-Asp)3 ({succinylated CM‑Chitin}-RGDRGDRGD) [CM--chitin derivative-11] | 147 | 100 | 73 | 45 | 21 | 12 | 125 | 78 | 70 | 143
2 | Sulfated CM-Chitin-Arg-Gly-Asp-Ser ({sulfated CM‑chitin}-RGDS) [CM--chitin derivative-13] | 103 | 70 | 47 | 31 | 17 | 7 | 77 | 57 | 33 | 97
3 | CM-Chitin-Arg-Gly-Asp-Ser ({CM‑Chitin}-RGDS) [CM--chitin derivative-1, rate of introduction of Arg-Gly-Asp-Ser fragments about 10%] | 148 | 89 | 72 | 41 | 15 | 10 | 106 | 79 | 69 | 131
4 | CM-Chitin-Gly-Arg-Gly-Asp-Ser-Pro [CM--chitin derivative-19] | 130 | 92 | 63 | 39 | 19 | 5 | 106 | 79 | 56 | 127
5 | CM-Chitin Gly-Arg-Gly-Asp-Ser (GRGDS; also: conjugated to CM-chitin) [CM--chitin derivative-7] | 143 | 85 | 79 | 55 | 30 | 16 | 98 | 84 | 71 | 119
6 | N=C(N)NCCC[C@H](N)C(=O)NCC(=O)N[C@@H](CC(=O)O)C(=O)O [ArgGlyAsp, H--(Arg--Gly--Asp)--OH, reference compound] | 171 | 132 | 104 | 73 | 27 | 22 | 162 | 141 | 83 | 157
7 | CM-Chitin Arg-Gly-Asp-Ser (RGDS; also: conjugated to CM-chitin) [CM--chitin derivative-18] | 125 | 83 | 56 | 44 | 21 | 10 | 101 | 75 | 52 | 133
8 | Trimellityl Derivative of CM-Chitin Arg-Gly-Asp-Ser ({trimellityl CM‑chitin}-RGDS) [CM--chitin derivative-6] | 133 | 98 | 71 | 56 | 26 | 11 | 107 | 93 | 66 | 127
9 | Phthaloyl derivative of CM-Chitin Arg-Gly-Asp-Ser (RGDS; also: conjugated to phthaloyl CM-chitin) [CM--chitin derivative-4] | 145 | 90 | 67 | 45 | 29 | 15 | 121 | 80 | 67 | 141
